Common to all, as to assay type: functional
For assay [1], the system named is Staphylococcus aureus. As to the kind of experiment: Antibacterial activity against Staphylococcus aureus ATCC 6538 after 24 hr by disk diffusion method.
The test system of assay [2] is Pseudomonas aeruginosa. As to the kind of experiment: Antibacterial activity against Pseudomonas aeruginosa ATCC 27853 after 24 hr by disk diffusion method. For orientation: In agar diffusion tests the substance spreads into inoculated agar from a disc or well.
Assay [3] concerns Escherichia coli. Nature of the assay: Antibacterial activity against Escherichia coli ATCC 25922 after 24 hr by disk diffusion method.

Turning to `COc1cc(/C=N/n2c(-c3ccccc3)nc3cc(Cl)ccc3c2=O)ccc1O`, the entries for the “inhibition zone (IZ)” value in assay [1], in assay [2] and in assay [3] were 15 mm, 5 mm and 21 mm, respectively.

With `C/C(=N\n1c(-c2ccccc2)nc2cc(Cl)ccc2c1=O)c1ccc(O)cc1`, the “inhibition zone (IZ)” value in assay [1] was found to be 15 mm; in assay [2], 4 mm; in assay [3], 22 mm.

As for `C/C(=N\n1c(-c2ccccc2)nc2cc(Cl)ccc2c1=O)c1ccc(Cl)cc1`, the entries for the “inhibition zone (IZ)” value in assay [1], in assay [2] and in assay [3] were 15 mm, 4 mm and 22 mm, respectively.

Turning to `O=C(O)c1cn(C2CC2)c2cc(N3CCNCC3)c(F)cc2c1=O` [CIPROFLOXACIN], the “inhibition zone (IZ)” value amounted to 17 mm in assay [1] and 18 mm in assay [2].

Source of the values: ChEMBL document CHEMBL3044987, “7-chloro-3-(substituted benzylidene/phenyl ethylidene amino)-2-phenylquinazolin-4(3H)-ones: synthesis, antimicrobial and antitubercular evaluation” (2012).
